Measurements taken from patent US20210371817A1, “COMPOSITIONS AND METHODS FOR PRECISE PATTERNING OF POSTERIOR NEUROECTODERM FROM HUMAN PLURIPOTENT STEM CELLS” (WISCONSIN ALUMNI RESEARCH FOUNDATION, priority 2013, published 2021).

System: NSC cultures
Test: Hox protein expression in NSC cultures after RA treatment (immunocytochemistry, flow cytometry)
Assay type: cell-based, human
Protocol: Assessment of neuroectoderm or mesoderm fate transition by flow cytometry. Grey histogram, IgG control; red histogram, antigen of interest. Data are presented as mean±standard deviation calculated from two biological replicates. (FIG. 8B) For experiments in panels FIGS. 8C-8F, neuromesodermal propagation was halted by removing FGF8b/CHIR 99021/GDF11 and adding RA. Assays were conducted after 4 days of RA treatment. (FIG. 8C) HOX profiles generated after RA treatment. Each gene is normalized to its maximum expression. Error bars are standard deviation calculated from duplicate reactions. (FIG. 8D) HoxB4 and HoxD10 expression in neuroepithelial cultures after RA treatment. Scale bars, 100 m. (FIG. 8E) Purity of Sox2, Pax6, HoxB4, and HoxD10 after 4 days of RA treatment. Sox2, Pax6, and HoxB4 were quantified using flow cytometry and HoxD10 was quantified by manual counting of dissociated cells ([…]). Error bars are standard deviation calculated from at least two biological replicates. […] (FIG. 8F) Motor neuron differentiation at cervical, thoracic, and lumbar spinal cord depths, where the motor neuron precursors show region-specific patterns of FoxP1, Isl1, and Hb9 co-expression. (FIG. 8G) Neuronal maturation from cervical, thoracic, and lumbar patterned NSCs, as assessed by immunocytochemistry (top panel; DAPI (blue) is overlaid in all images; Scale bars, 20 m) and RT-PCR (50 cycles; bottom panel).
FIGS. 9A-9C (FIG. 9A) provides additional data showing that RA induces a neuroectodermal fate and halts colinear HOX activation, using the neural differentiation scheme shown in FIG. 8B and representative hindbrain cultures assessed by qPCR. (FIG. 9B) Representative hindbrain cultures assessed by immunocytochemistry. (FIG. 9C) Representative hindbrain cultures assessed by flow cytometry. All data are presented as mean±S.D. and qPCR data are normalized to the time point of maximum expression for each gene. For the hindbrain cultures, HoxB1 and HoxB4 were quantified by immunocytochemistry relative to DAPI+ nuclei, while Sox2 and Pax6 were quantified by flow cytometry. Scale bars, 100 m.
Flow cytometry. Flow cytometry was conducted as described in the Examples above. Primary antibodies against Sox2 (mouse; 1:1000; Millipore), brachyury (goat; 1:200; R&D Systems), Pax6 (mouse; 1:200; DSHB), and HoxB4 (rat; 1:50; DSHB) were utilized. Samples were run on a FACSCaliber (BD Biosciences) and data were analyzed using Cyflogic software. Positive events were quantified by gating above the top 1% of species-matched IgG controls.
Immunocytochemistry. Immunocytochemistry was conducted as previously described. […]

GDF11: Growth differentiation factor 11, a TGFβ family member
HoxD10+ cells (RA added at 120 h of neuromesodermal propagation): 0%
HoxD10+ cells (RA added at 144 h of neuromesodermal propagation, after GDF11 treatment): 89±2%
